Measured values: PubChem BioAssay AID1963842 (Molecular Pharmacology Branch, DTP, NCI, 2024)

Tested on: 677734-321-R-J1-PDC complex spheroid viability
Assay: Anticancer human tumor 677734-321-R-J1-PDC patient-derived soft tissue sarcoma cell line growth inhibition [POLQ]
Details: for IC50: curve of first compound; for viability, T/C: stronger effect = lower value
Method in brief: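 Complex spheroid viability model combining PDC tumour cells with endothelial (HUVEC) and MSC stromal cells. Novobiocin, ART-558 or RP6685 were tested singly and in combination with standard and investigational anticancer drugs. Each was titrated in half-log steps from near clinical Cmax, or from 10 microM where Cmax was unknown.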

[1] = second compound 0.0316 µM, first compound 0.0316 µM
[2] = second compound 0.0316 µM, first compound 0.1 µM
[3] = second compound 0.1 µM, first compound 0.0316 µM
[4] = second compound 0.1 µM, first compound 0.1 µM
[5] = second compound 0.316 µM, first compound 0.0316 µM
[6] = second compound 0.316 µM, first compound 0.1 µM
[7] = second compound 1 µM, first compound 0.0316 µM
[8] = second compound 1 µM, first compound 0.1 µM
[9] = second compound 3.16 µM, first compound 0.0316 µM
[10] = second compound 3.16 µM, first compound 0.1 µM
[11] = second compound 10 µM, first compound 0.0316 µM
[12] = second compound 10 µM, first compound 0.1 µM
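Also: spheroids exposed to compounds for one week.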
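For viability, T/C in this document: 100% = vehicle DMSO treated spheroids.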

Q: With CC(=O)O[C@H]1C(=O)[C@@]2(C)[C@H]([C@H](OC(=O)c3ccccc3)[C@]3(O)C[C@H](OC(=O)[C@H](O)[C@@H](NC(=O)c4ccccc4)c4ccccc4)C(C)=C1C3(C)C)[C@]1(OC(C)=O)CO[C@@H]1C[C@@H]2O + Nc1ccc(C#CCN(C(=O)Cc2ncc(C(F)(F)F)cc2C(F)(F)F)c2ccc(F)cc2)nn1 as the compound, how does the IC50 (second compound 0.0316 µM) read?
A: < 9.49 nM

Q: And the IC50 (second compound 0.1 µM)?
A: < 9.49 nM

Q: What about the IC50 (second compound 0.316 µM) of the same compound?
A: < 9.49 nM

Q: What about the IC50 (second compound 1 µM) of the same compound?
A: < 9.49 nM

Q: And the IC50 (second compound 3.16 µM)?
A: < 9.49 nM

Q: What about the IC50 (second compound 10 µM) of the same compound?
A: < 9.49 nM

Q: What about the viability, T/C (second compound 0.0316 µM, first compound 0.00949 µM) of the same compound?
A: 21.6%

Q: And the viability, T/C (second compound 0.0316 µM, first compound 0.03 µM)?
A: 15%

Q: What about the viability, T/C (second compound 0.0316 µM, first compound 0.0949 µM) of the same compound?
A: 13.9%

Q: And the viability, T/C (second compound 0.0316 µM, first compound 0.3 µM)?
A: 14.6%

Q: What about the viability, T/C (second compound 0.0316 µM, first compound 0.949 µM) of the same compound?
A: 14.9%

Q: What about the viability, T/C (second compound 0.0316 µM, first compound 3 µM) of the same compound?
A: 17.6%

Q: What about the viability, T/C (second compound 0.1 µM, first compound 0.00949 µM) of the same compound?
A: 32.9%

Q: What about the viability, T/C (second compound 0.1 µM, first compound 0.03 µM) of the same compound?
A: 18.3%

Q: What about the viability, T/C (second compound 0.1 µM, first compound 0.0949 µM) of the same compound?
A: 14.2%

Q: And the viability, T/C (second compound 0.1 µM, first compound 0.3 µM)?
A: 13.9%

Q: What about the viability, T/C (second compound 0.1 µM, first compound 0.949 µM) of the same compound?
A: 14.3%

Q: What about the viability, T/C (second compound 0.1 µM, first compound 3 µM) of the same compound?
A: 16.1%

Q: And the viability, T/C (second compound 0.316 µM, first compound 0.00949 µM)?
A: 21.7%

Q: And the viability, T/C (second compound 0.316 µM, first compound 0.03 µM)?
A: 17.9%

Q: What about the viability, T/C (second compound 0.316 µM, first compound 0.0949 µM) of the same compound?
A: 14.7%

Q: What about the viability, T/C (second compound 0.316 µM, first compound 0.3 µM) of the same compound?
A: 11.6%

Q: What about the viability, T/C (second compound 0.316 µM, first compound 0.949 µM) of the same compound?
A: 13.8%

Q: What about the viability, T/C (second compound 0.316 µM, first compound 3 µM) of the same compound?
A: 15.7%

Q: And the viability, T/C (second compound 1 µM, first compound 0.00949 µM)?
A: 32.7%

Q: And the viability, T/C (second compound 1 µM, first compound 0.03 µM)?
A: 17.1%

Q: And the viability, T/C (second compound 1 µM, first compound 0.0949 µM)?
A: 16.6%

Q: What about the viability, T/C (second compound 1 µM, first compound 0.3 µM) of the same compound?
A: 15%

Q: And the viability, T/C (second compound 1 µM, first compound 0.949 µM)?
A: 13.3%

Q: And the viability, T/C (second compound 1 µM, first compound 3 µM)?
A: 12.2%

Q: And the viability, T/C (second compound 3.16 µM, first compound 0.00949 µM)?
A: 34.1%

Q: What about the viability, T/C (second compound 3.16 µM, first compound 0.03 µM) of the same compound?
A: 16.9%

Q: What about the viability, T/C (second compound 3.16 µM, first compound 0.0949 µM) of the same compound?
A: 11.8%

Q: And the viability, T/C (second compound 3.16 µM, first compound 0.3 µM)?
A: 13.4%

Q: And the viability, T/C (second compound 3.16 µM, first compound 0.949 µM)?
A: 13.5%

Q: And the viability, T/C (second compound 3.16 µM, first compound 3 µM)?
A: 16.4%

Q: What about the viability, T/C (second compound 10 µM, first compound 0.00949 µM) of the same compound?
A: 28.8%

Q: And the viability, T/C (second compound 10 µM, first compound 0.03 µM)?
A: 16.4%

Q: What about the viability, T/C (second compound 10 µM, first compound 0.0949 µM) of the same compound?
A: 12.6%

Q: What about the viability, T/C (second compound 10 µM, first compound 0.3 µM) of the same compound?
A: 13.4%

Q: What about the viability, T/C (second compound 10 µM, first compound 0.949 µM) of the same compound?
A: 13%

Q: What about the viability, T/C (second compound 10 µM, first compound 3 µM) of the same compound?
A: 16.8%

Q: What does the source list for CC[C@@]1(O)C(=O)OCc2c1cc1n(c2=O)Cc2cc3c(CN(C)C)c(O)ccc3nc2-1 + Nc1ccc(C#CCN(C(=O)Cc2ncc(C(F)(F)F)cc2C(F)(F)F)c2ccc(F)cc2)nn1?
A: IC50 (second compound 0.0316 µM): 19.9 nM; IC50 (second compound 0.1 µM): 21.2 nM; IC50 (second compound 0.316 µM): 22.1 nM; IC50 (second compound 1 µM): 22.6 nM; IC50 (second compound 3.16 µM): 22.4 nM; IC50 (second compound 10 µM): 22.1 nM; viability, T/C (second compound 0.0316 µM, first compound 0.000316 µM): 108%; viability, T/C (second compound 0.0316 µM, first compound 0.001 µM): 115%; viability, T/C (second compound 0.0316 µM, first compound 0.00316 µM): 117%; viability, T/C (second compound 0.0316 µM, first compound 0.01 µM): 86.2%; viability, T/C [1]: 25.9%; viability, T/C [2]: 15.3%; viability, T/C (second compound 0.1 µM, first compound 0.000316 µM): 99.3%; viability, T/C (second compound 0.1 µM, first compound 0.001 µM): 97.7%; viability, T/C (second compound 0.1 µM, first compound 0.00316 µM): 99.2%; viability, T/C (second compound 0.1 µM, first compound 0.01 µM): 87.3%; viability, T/C [3]: 30.3%; viability, T/C [4]: 13%; viability, T/C (second compound 0.316 µM, first compound 0.000316 µM): 116%; viability, T/C (second compound 0.316 µM, first compound 0.001 µM): 105%; viability, T/C (second compound 0.316 µM, first compound 0.00316 µM): 90.4%; viability, T/C (second compound 0.316 µM, first compound 0.01 µM): 98.2%; viability, T/C [5]: 28.1%; viability, T/C [6]: 14.9%; viability, T/C (second compound 1 µM, first compound 0.000316 µM): 110%; viability, T/C (second compound 1 µM, first compound 0.001 µM): 99.9%; viability, T/C (second compound 1 µM, first compound 0.00316 µM): 103%; viability, T/C (second compound 1 µM, first compound 0.01 µM): 89.9%; viability, T/C [7]: 33.6%; viability, T/C [8]: 12.8%; viability, T/C (second compound 3.16 µM, first compound 0.000316 µM): 102%; viability, T/C (second compound 3.16 µM, first compound 0.001 µM): 102%; viability, T/C (second compound 3.16 µM, first compound 0.00316 µM): 104%; viability, T/C (second compound 3.16 µM, first compound 0.01 µM): 102%; viability, T/C [9]: 27.7%; viability, T/C [10]: 17.6%; viability, T/C (second compound 10 µM, first compound 0.000316 µM): 135%; viability, T/C (second compound 10 µM, first compound 0.001 µM): 106%; viability, T/C (second compound 10 µM, first compound 0.00316 µM): 92.5%; viability, T/C (second compound 10 µM, first compound 0.01 µM): 83.7%; viability, T/C [11]: 29.4%; viability, T/C [12]: 13.8%

Q: With Nc1ccn(C2OC(CO)C(O)C2(F)F)c(=O)n1 (stereo unspecified) + Nc1ccc(C#CCN(C(=O)Cc2ncc(C(F)(F)F)cc2C(F)(F)F)c2ccc(F)cc2)nn1 as the compound, how does the IC50 (second compound 0.0316 µM) read?
A: < 31.6 nM

Q: And the IC50 (second compound 0.1 µM)?
A: < 31.6 nM

Q: What about the IC50 (second compound 0.316 µM) of the same compound?
A: < 31.6 nM

Q: And the IC50 (second compound 1 µM)?
A: < 31.6 nM

Q: And the IC50 (second compound 3.16 µM)?
A: < 31.6 nM

Q: And the IC50 (second compound 10 µM)?
A: 68.3 nM

Q: And the viability, T/C [1]?
A: 15.4%

Q: What about the viability, T/C [2] of the same compound?
A: 11.3%

Q: And the viability, T/C (second compound 0.0316 µM, first compound 0.316 µM)?
A: 11.7%

Q: And the viability, T/C (second compound 0.0316 µM, first compound 1 µM)?
A: 10.9%

Q: What about the viability, T/C (second compound 0.0316 µM, first compound 3.16 µM) of the same compound?
A: 10.4%

Q: And the viability, T/C (second compound 0.0316 µM, first compound 10 µM)?
A: 5.84%

Q: What about the viability, T/C [3] of the same compound?
A: 17.8%

Q: And the viability, T/C [4]?
A: 13%

Q: And the viability, T/C (second compound 0.1 µM, first compound 0.316 µM)?
A: 11.4%

Q: And the viability, T/C (second compound 0.1 µM, first compound 1 µM)?
A: 11.2%

Q: What about the viability, T/C (second compound 0.1 µM, first compound 3.16 µM) of the same compound?
A: 8.25%

Q: What about the viability, T/C (second compound 0.1 µM, first compound 10 µM) of the same compound?
A: 6.36%

Q: What about the viability, T/C [5] of the same compound?
A: 18.4%

Q: And the viability, T/C [6]?
A: 11.9%

Q: And the viability, T/C (second compound 0.316 µM, first compound 0.316 µM)?
A: 13%

Q: And the viability, T/C (second compound 0.316 µM, first compound 1 µM)?
A: 12.1%

Q: And the viability, T/C (second compound 0.316 µM, first compound 3.16 µM)?
A: 11.4%

Q: What about the viability, T/C (second compound 0.316 µM, first compound 10 µM) of the same compound?
A: 6.35%

Q: And the viability, T/C [7]?
A: 28.2%

Q: What about the viability, T/C [8] of the same compound?
A: 11.8%

Q: What about the viability, T/C (second compound 1 µM, first compound 0.316 µM) of the same compound?
A: 12.3%

Q: And the viability, T/C (second compound 1 µM, first compound 1 µM)?
A: 13.7%

Q: And the viability, T/C (second compound 1 µM, first compound 3.16 µM)?
A: 10.3%

Q: And the viability, T/C (second compound 1 µM, first compound 10 µM)?
A: 6.64%

Q: What about the viability, T/C [9] of the same compound?
A: 46.4%

Q: And the viability, T/C [10]?
A: 15.8%

Q: And the viability, T/C (second compound 3.16 µM, first compound 0.316 µM)?
A: 13.1%

Q: What about the viability, T/C (second compound 3.16 µM, first compound 1 µM) of the same compound?
A: 13.7%

Q: And the viability, T/C (second compound 3.16 µM, first compound 3.16 µM)?
A: 9.36%

Q: And the viability, T/C (second compound 3.16 µM, first compound 10 µM)?
A: 7.65%

Q: And the viability, T/C [11]?
A: 87.1%

Q: What about the viability, T/C [12] of the same compound?
A: 31.4%

Q: And the viability, T/C (second compound 10 µM, first compound 0.316 µM)?
A: 14.1%

Q: And the viability, T/C (second compound 10 µM, first compound 1 µM)?
A: 14.3%

Q: What about the viability, T/C (second compound 10 µM, first compound 3.16 µM) of the same compound?
A: 10.6%

Q: And the viability, T/C (second compound 10 µM, first compound 10 µM)?
A: 9.19%
